Laboratory results taken from patent US20150345047A1, “SYSTEMS AND METHODS FOR IDENTIFYING DRUG COMBINATIONS FOR REDUCED DRUG RESISTANCE IN CANCER TREATMENT” (Memorial Sloan Kettering Cancer Center, priority 2014, published 2015).

How the values were obtained:
Type in all cases: cell-based
AKTpS473 = assay: Western blot IC40 of downstream effector readout; details: concentration inhibiting AKTpS473 readout by 40%, SkMel133
Experimental: (§1) In total, cells were treated with 89 unique perturbations (Table 3). In paired combinations, each drug concentration was selected to inhibit the readout for the presumed target or the downstream effectors by 40% (IC40) as determined by Western Blot experiments. In single agent perturbations, each drug is applied at two different concentrations, IC40 and 2×IC40.

GSK3pS21 = assay: Western blot IC40 of downstream effector readout; details: concentration inhibiting GSK3pS21 readout by 40%, SkMel133
Experimental: as §1

MAPK1pT202 = assay: Western blot IC40 of downstream effector readout; details: concentration inhibiting MAPK1pT202 readout by 40%, SkMel133
Experimental: as §1

STAT3pY705 = assay: Western blot IC40 of downstream effector readout; details: concentration inhibiting STAT3pY705 readout by 40%, SkMel133
Experimental: as §1

S6pS240 = assay: Western blot IC40 of downstream effector readout; details: concentration inhibiting S6pS240 readout by 40%, SkMel133
Experimental: as §1

BRD4 = assay: Western blot of BRD4 level; details: 24 hours after treatment
Experimental: (§2) FIGS. 6A-6E illustrate the combined targeting of c-Myc with MEK and BRAF leads to synergistic response in melanoma cells. […] The leftward shift of isocurves implies synergistic interactions between the applied perturbations. u denotes strength of in silico perturbations. […] The BRD4 level is unchanged in response to JQ1 treatment. […] C-Myc expression is targeted with BRD4 inhibitor, JQ1. […] Cell viability is measured using the resazurin assay. […] The combination index (CI) calculated using the drug dose response curves quantifies the drug interactions between JQ1, MEKi and RAFi (left panel). CI for a given level of inhibition is a measure of the fractional shift between the combination doses (C1 and C2) and the single agent's inhibitory concentration (Cx,1, Cx,2). It is formulated as CI=(C1/Cx,1)[…](C2/Cx,2). Amax is the response of melanoma cells to JQ1, MEKi and RAFi at highest doses applied (right panel). 1-Amax is the fraction of cells alive in response to highest drug dose normalized with respect to the non-drug treated condition. […] 86% of cells are in G1 state 48 hours after JQ1 treatment, while 42% of the cells are in G1 state before drug treatment (error bars: ±SEM in 3 biological replicates).

SkMel133 cells = assay: Cell viability, resazurin assay; details: highest doses applied
Experimental: All phenotypic measurements were made in perturbation conditions identical to those in proteomic measurements. Cell viability and cell cycle progression were measured 72 hours after drug treatment using the Resazurin assay and flow cytometry analysis respectively. The percentage of cells in the G1, G2/M, and S phases and sub-G1 fraction were recorded based on the respective distribution of DNA content in each phase.

c-Myc = assay: Western blot of c-Myc expression; details: 24 hours after drug treatment, SkMel133
Experimental: as §2
First, it was postulated whether c-Myc levels in SkMel133 cells could be targeted using JQ1. […]

4EBP1pS65 = assay: Western blot IC40 of downstream effector readout; details: concentration inhibiting 4EBP1pS65 readout by 40%, SkMel133
Experimental: as §1

P27/Kip1 = assay: Western blot IC40 of downstream effector readout; details: concentration changing P27/Kip1 readout by 40%, SkMel133
Experimental: as §1

## FC(F)c1nc2ccccc2n1-c1nc(N2CCOCC2)nc(N2CCOCC2)n1 [ZSTK474]
AKTpS473
  Dose 1 (IC40): 600 nM

## CC(C)(C)c1nc2c3cc[nH]c(=O)c3c3cc(F)ccc3c2[nH]1 [P6]
GSK3pS21
  Dose 1 (IC40): 20 nM

## O=C(NOC[C@H](O)CO)c1ccc(F)c(F)c1Nc1ccc(I)cc1F [PD0325901]
MAPK1pT202
  Dose 1 (IC40): 1.5 nM

## O=[N+]([O-])c1ccc2c(c1)S(=O)(=O)C=C2 [Stattic]
STAT3pY705
  Dose 1 (IC40): 600 nM

## CO[C@H]1C[C@@H]2CC[C@@H](C)[C@@](O)(O2)C(=O)C(=O)N2CCCC[C@H]2C(=O)O[C@H]([C@H](C)C[C@@H]2CC[C@@H](OC(=O)C(C)(CO)CO)[C@H](OC)C2)CC(=O)[C@H](C)/C=C(\C)[C@@H](O)[C@@H](OC)C(=O)[C@H](C)C[C@H](C)/C=C/C=C/C=C/1C [Temsirolimus]
S6pS240
  Dose 1 (IC40): 0.3 nM

## Cc1sc2c(c1C)C(c1ccc(Cl)cc1)=N[C@@H](CC(=O)OC(C)(C)C)c1nnc(C)n1-2 [JQ1]
BRD4
  BRD4 level: unchanged
SkMel133 cells
  maximal effect level (Amax, response to the drugs at highest doses): 10%
c-Myc
  c-Myc expression level: reduced

## CCCS(=O)(=O)Nc1ccc(F)c(C(=O)c2c[nH]c3ncc(Cl)cc23)c1F [PLX4720]
MAPK1pT202
  Dose 1 (IC40): 60 nM

## COc1ccc(C2=NC(c3ccc(Cl)cc3)C(c3ccc(Cl)cc3)N2C(=O)N2CCNC(=O)C2)c(OC(C)C)c1 (stereo not shown) [Nutlin]
4EBP1pS65
  Dose 1 (IC40): 3,000 nM

## O=C(CCCCCCSc1ccc2ccccc2c1)NO [HNHA]
P27/Kip1
  Dose 1 (IC40): 6,000 nM

## Cn1cc(C2=C(c3cn(CCCN)c4ccccc34)C(=O)NC2=O)c2ccccc21 [RO-31-7549]
S6pS240
  Dose 1 (IC40): 3500 nM

## O=c1[nH]c2ccccc2n1C1CCN(Cc2ccc(-c3nc4cc5nc[nH]c5cc4nc3-c3ccccc3)cc2)CC1 [AKTi 1/2]
AKTpS473
  Dose 1 (IC40): 5.000 nM
